Assay results from the supplement of paper PMC6411743.

Compound: Nc1ncnc2c1ncn2[C@@H]1O[C@H](COP(=O)(O)OP(=O)(O)OP(=O)(O)O)[C@@H](O)[C@H]1O [adenosine triphosphate]
Assay: pEC50 of ATP-induced change in protein thermal stability (2D-TPP)
Experimental: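 2D thermal proteome profiling in mechanically disrupted Jurkat crude lysate. Lysate was treated 10 min at room temperature with Na-ATP (0, 0.005, 0.05, 0.5, 2 mM), heated to 12 temperatures (42-63.9 °C) for 3 min, and soluble protein was quantified by TMT10 LC-MS/MS. pEC50 is the median over replicates of dose-response fits at the lowest temperature showing a fold change of at least 1.5 (FDR-controlled hits).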

Sequence of UniProt Q7L5N1 (Q7L5N1 whole entry): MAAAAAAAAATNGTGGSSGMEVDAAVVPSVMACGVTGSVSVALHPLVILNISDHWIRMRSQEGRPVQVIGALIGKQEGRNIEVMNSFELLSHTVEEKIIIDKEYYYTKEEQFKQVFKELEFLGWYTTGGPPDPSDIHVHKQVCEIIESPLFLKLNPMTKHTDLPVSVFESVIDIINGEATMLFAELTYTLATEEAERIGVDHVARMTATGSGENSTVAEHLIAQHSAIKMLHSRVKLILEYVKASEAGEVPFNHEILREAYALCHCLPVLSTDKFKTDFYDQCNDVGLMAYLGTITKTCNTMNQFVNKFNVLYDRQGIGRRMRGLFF
Sequence of UniProt Q9UBP0 (Q9UBP0 whole entry): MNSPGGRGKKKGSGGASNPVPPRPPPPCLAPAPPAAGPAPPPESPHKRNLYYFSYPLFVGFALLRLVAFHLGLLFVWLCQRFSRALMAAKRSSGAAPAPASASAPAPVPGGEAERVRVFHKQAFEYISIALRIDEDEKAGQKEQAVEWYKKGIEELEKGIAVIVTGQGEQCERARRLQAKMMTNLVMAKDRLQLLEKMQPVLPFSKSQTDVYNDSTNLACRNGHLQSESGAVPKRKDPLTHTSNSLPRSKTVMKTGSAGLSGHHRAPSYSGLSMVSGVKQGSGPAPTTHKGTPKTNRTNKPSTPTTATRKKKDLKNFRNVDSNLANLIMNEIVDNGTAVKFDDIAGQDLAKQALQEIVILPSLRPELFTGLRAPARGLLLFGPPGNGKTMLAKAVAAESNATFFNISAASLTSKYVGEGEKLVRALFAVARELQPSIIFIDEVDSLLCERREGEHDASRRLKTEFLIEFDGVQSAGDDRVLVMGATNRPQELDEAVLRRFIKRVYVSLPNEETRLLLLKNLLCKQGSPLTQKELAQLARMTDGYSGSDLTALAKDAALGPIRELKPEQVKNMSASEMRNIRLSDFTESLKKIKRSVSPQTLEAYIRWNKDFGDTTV
Sequence of UniProt P51003 (P51003 whole entry): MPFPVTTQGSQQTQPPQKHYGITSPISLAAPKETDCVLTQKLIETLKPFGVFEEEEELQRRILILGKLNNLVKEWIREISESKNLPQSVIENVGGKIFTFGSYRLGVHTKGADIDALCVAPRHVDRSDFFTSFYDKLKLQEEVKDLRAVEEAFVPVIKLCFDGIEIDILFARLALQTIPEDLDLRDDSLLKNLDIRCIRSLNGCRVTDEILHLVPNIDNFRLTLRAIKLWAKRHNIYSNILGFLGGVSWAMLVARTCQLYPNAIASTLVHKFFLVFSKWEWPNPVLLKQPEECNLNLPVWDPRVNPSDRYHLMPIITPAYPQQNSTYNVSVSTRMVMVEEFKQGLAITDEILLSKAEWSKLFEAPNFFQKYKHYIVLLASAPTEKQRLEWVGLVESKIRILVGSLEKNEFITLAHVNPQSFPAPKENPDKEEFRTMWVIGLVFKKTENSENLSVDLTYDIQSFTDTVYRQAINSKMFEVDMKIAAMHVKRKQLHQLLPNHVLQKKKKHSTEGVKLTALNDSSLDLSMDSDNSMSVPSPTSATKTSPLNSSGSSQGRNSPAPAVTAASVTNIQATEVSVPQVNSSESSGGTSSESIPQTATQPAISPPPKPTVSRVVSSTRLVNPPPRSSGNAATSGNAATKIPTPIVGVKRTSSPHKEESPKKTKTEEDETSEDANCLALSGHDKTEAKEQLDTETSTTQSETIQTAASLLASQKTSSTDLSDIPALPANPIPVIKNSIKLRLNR
Sequence of UniProt P34932 (P34932 whole entry): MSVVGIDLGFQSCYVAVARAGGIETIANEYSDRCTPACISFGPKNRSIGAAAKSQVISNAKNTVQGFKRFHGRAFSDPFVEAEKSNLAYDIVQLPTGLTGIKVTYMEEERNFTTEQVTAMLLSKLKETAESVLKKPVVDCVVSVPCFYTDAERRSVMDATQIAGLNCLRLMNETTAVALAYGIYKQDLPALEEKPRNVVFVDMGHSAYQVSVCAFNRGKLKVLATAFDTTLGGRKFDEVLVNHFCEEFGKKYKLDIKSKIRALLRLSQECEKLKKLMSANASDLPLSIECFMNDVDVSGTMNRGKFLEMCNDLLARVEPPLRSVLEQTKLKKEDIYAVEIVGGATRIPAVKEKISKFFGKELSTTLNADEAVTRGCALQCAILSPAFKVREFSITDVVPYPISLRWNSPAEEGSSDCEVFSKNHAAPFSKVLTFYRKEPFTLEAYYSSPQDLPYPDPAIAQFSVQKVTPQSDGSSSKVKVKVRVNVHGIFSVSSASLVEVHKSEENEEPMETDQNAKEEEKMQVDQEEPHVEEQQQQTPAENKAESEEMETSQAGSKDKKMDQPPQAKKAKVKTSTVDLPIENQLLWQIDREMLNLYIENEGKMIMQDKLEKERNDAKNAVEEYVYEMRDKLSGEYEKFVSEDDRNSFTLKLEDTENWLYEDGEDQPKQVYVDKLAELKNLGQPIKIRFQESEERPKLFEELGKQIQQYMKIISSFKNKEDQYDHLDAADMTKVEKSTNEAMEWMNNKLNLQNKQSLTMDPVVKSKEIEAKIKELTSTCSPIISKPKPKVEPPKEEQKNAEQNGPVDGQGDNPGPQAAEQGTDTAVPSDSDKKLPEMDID
Sequence of UniProt O43847 (O43847 whole entry): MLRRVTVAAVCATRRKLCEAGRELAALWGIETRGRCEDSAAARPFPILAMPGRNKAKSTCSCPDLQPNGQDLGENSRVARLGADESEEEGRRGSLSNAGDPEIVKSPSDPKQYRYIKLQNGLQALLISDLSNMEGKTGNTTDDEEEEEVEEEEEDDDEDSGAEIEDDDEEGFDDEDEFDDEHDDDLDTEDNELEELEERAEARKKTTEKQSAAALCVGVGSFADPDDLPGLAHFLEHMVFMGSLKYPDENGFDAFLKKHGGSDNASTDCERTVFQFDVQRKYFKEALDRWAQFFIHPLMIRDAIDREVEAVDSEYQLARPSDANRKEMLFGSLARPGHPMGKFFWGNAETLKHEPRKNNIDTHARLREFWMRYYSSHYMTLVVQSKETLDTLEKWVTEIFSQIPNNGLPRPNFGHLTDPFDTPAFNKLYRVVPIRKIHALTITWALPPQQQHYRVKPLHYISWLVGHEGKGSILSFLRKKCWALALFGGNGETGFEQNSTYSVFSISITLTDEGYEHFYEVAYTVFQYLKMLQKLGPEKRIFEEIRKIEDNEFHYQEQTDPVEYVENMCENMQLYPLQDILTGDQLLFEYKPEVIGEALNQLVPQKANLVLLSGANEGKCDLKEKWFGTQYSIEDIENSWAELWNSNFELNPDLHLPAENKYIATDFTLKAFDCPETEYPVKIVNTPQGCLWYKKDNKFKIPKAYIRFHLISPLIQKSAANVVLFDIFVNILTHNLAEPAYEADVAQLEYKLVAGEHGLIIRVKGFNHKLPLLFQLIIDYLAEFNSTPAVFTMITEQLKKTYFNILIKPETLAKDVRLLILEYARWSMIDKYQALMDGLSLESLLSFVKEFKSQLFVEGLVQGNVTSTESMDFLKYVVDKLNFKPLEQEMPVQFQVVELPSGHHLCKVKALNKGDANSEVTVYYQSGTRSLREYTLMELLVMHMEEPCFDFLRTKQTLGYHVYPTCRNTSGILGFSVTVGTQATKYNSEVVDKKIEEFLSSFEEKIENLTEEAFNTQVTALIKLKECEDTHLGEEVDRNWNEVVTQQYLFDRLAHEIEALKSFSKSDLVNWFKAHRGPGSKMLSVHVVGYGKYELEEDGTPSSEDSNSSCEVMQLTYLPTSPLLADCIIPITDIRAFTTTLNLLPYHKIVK
Sequence of UniProt Q13188 (Q13188 whole entry): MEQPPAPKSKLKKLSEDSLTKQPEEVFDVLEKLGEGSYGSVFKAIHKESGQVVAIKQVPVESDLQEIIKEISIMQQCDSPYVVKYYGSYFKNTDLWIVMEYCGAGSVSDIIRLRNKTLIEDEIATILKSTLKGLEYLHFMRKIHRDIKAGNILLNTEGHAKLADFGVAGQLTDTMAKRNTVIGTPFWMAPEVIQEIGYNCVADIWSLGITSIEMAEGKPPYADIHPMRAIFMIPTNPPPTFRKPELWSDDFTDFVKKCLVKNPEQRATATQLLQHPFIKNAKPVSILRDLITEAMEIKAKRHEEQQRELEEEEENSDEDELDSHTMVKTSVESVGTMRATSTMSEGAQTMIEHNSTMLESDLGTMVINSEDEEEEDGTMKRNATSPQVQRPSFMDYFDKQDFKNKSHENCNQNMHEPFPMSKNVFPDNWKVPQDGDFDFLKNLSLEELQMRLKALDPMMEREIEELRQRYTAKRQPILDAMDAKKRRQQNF
Sequence of UniProt Q8TBC3 (Q8TBC3 whole entry): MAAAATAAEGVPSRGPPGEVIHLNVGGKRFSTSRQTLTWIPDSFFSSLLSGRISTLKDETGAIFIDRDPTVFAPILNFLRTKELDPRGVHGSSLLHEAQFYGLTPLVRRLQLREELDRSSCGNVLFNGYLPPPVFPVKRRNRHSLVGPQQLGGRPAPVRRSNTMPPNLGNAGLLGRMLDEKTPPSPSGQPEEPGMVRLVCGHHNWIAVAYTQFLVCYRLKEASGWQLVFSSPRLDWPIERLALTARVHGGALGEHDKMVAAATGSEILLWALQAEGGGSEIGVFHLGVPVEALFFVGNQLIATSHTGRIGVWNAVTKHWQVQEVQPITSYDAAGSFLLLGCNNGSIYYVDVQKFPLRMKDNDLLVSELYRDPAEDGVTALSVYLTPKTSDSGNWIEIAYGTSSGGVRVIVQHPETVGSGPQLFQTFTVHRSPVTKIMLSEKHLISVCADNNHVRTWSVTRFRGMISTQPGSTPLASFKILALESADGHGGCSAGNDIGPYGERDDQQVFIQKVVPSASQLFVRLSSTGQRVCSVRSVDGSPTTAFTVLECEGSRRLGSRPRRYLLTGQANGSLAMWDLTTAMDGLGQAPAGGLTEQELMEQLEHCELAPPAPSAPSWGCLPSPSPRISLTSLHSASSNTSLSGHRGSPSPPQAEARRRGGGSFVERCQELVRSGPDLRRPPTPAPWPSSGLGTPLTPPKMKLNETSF
Sequence of UniProt P62316 (P62316 whole entry): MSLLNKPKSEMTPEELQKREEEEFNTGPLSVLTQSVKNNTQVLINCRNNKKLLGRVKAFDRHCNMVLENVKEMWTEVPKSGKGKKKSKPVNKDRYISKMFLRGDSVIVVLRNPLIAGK

| Target | pEC50 |
| --- | --- |
| HSPA8 (effect direction: stabilized) (UniProt P11142) | 4.09 |
| COPS6 (effect direction: stabilized) (UniProt Q7L5N1) | < 2.7 |
| HUWE1 (effect direction: stabilized) (UniProt Q7Z6Z7) | < 2.7 |
| POLR2E (effect direction: destabilized) (UniProt P19388) | 3.45 |
| MRPL30 (effect direction: destabilized) (UniProt Q8TCC3) | 3.37 |
| PUS7 (effect direction: stabilized) (UniProt Q96PZ0) | < 2.7 |
| PSMD8 (effect direction: stabilized) (UniProt P48556) | 4.12 |
| BICD2 (effect direction: stabilized) (UniProt Q8TD16) | < 2.7 |
| DIS3L2 (effect direction: stabilized) (UniProt Q8IYB7) | 3.42 |
| PACSIN2 (effect direction: stabilized) (UniProt Q9UNF0) | < 2.7 |
| SHKBP1 (effect direction: stabilized) (UniProt Q8TBC3) | 2.83 |
| JAKMIP1 (effect direction: stabilized) (UniProt Q96N16) | 3.3 |
| UniProt Q8TBX8 (effect direction: stabilized) | 3.04 |
| UniProt P48729 (effect direction: stabilized) | 3.3 |
| PDCD10 (effect direction: stabilized) (UniProt Q9BUL8) | 3.17 |
| LAGE3 (effect direction: stabilized) (UniProt Q14657) | 3.86 |
| CPSF1 (effect direction: stabilized) (UniProt Q10570) | < 2.7 |
| UniProt P60891 (effect direction: stabilized) | 3 |
| ARHGDIB (effect direction: stabilized) (UniProt P52566) | < 2.7 |
| NPM3 (effect direction: stabilized) (UniProt O75607) | < 2.7 |
| EIF4G2 (effect direction: stabilized) (UniProt P78344) | < 2.7 |
| PPM1H (effect direction: destabilized) (UniProt Q9ULR3) | < 2.7 |
| UniProt Q13188 (effect direction: stabilized) | 3.25 |
| CCT6A (effect direction: stabilized) (UniProt P40227) | 4.38 |

| Target | pEC50 |
| --- | --- |
| SUB1 (effect direction: destabilized) (UniProt P53999) | 3.37 |
| GRAMD4 (effect direction: stabilized) (UniProt Q6IC98) | 3.13 |
| PURA (effect direction: stabilized) (UniProt Q00577) | 3.13 |
| PRKACB (effect direction: stabilized) (UniProt P22694) | 3.91 |
| EIF3A (effect direction: destabilized) (UniProt Q14152) | 4.48 |
| CINP (effect direction: stabilized) (UniProt Q9BW66) | 2.98 |
| RPL28 (effect direction: destabilized) (UniProt P46779) | 4.17 |
| PLEKHF2 (effect direction: stabilized) (UniProt Q9H8W4) | 3.17 |
| CHERP (effect direction: stabilized) (UniProt Q8IWX8) | 3.05 |
| UniProt P24539 (effect direction: stabilized) | 4.02 |
| BCL7A (effect direction: destabilized) (UniProt Q4VC05) | 3.03 |
| UniProt Q8WXA9 (effect direction: stabilized) | 3.39 |
| UniProt Q9NQG6 (effect direction: stabilized) | 3.74 |
| APRT (effect direction: destabilized) (UniProt P07741) | 4.41 |
| UniProt Q08623 (effect direction: destabilized) | < 2.7 |
| UniProt P84098 (effect direction: destabilized) | 2.89 |
| PLS1 (effect direction: stabilized) (UniProt Q14651) | < 2.7 |
| UniProt Q92841 (effect direction: stabilized) | 3.79 |
| CCNB1 (effect direction: stabilized) (UniProt P14635) | 4.27 |
| EIF2B3 (effect direction: stabilized) (UniProt Q9NR50) | 3.82 |
| PSMD4 (effect direction: stabilized) (UniProt P55036) | 3.77 |
| FAM20B (effect direction: stabilized) (UniProt O75063) | 3.12 |
| PAPOLA (effect direction: stabilized) (UniProt P51003) | 2.95 |
| UniProt P60842 (effect direction: stabilized) | 3.47 |

| Target | pEC50 |
| --- | --- |
| ASNS (effect direction: stabilized) (UniProt P08243) | 3.18 |
| SRC (effect direction: stabilized) (UniProt P12931) | 3.37 |
| UniProt O96017 (effect direction: stabilized) | 3.33 |
| TTC37 (effect direction: stabilized) (UniProt Q6PGP7) | 3.19 |
| DHX36 (effect direction: stabilized) (UniProt Q9H2U1) | 3.99 |
| DNAJC13 (effect direction: stabilized) (UniProt O75165) | 2.86 |
| UniProt Q05655 (effect direction: stabilized) | 3.91 |
| FAHD2A (effect direction: destabilized) (UniProt Q96GK7) | < 2.7 |
| RAD21 (effect direction: stabilized) (UniProt O60216) | 3.6 |
| UniProt Q13043 (effect direction: stabilized) | 3.38 |
| SCCPDH (effect direction: stabilized) (UniProt Q8NBX0) | 3.12 |
| SMARCA5 (effect direction: stabilized) (UniProt O60264) | 4.03 |
| SRPRB (effect direction: stabilized) (UniProt Q9Y5M8) | 3.22 |
| GSTO1 (effect direction: stabilized) (UniProt P78417) | < 2.7 |
| UniProt P62841 (effect direction: destabilized) | 2.99 |
| UniProt O60524 (effect direction: destabilized) | 3.06 |
| KIF20A (effect direction: stabilized) (UniProt O95235) | 3.14 |
| PANK2 (effect direction: stabilized) (UniProt Q9BZ23) | 3.02 |
| FOXK2 (effect direction: stabilized) (UniProt Q01167) | 3.76 |
| MSI2 (effect direction: stabilized) (UniProt Q96DH6) | < 2.7 |
| GLOD4 (effect direction: stabilized) (UniProt Q9HC38) | < 2.7 |
| LCLAT1 (effect direction: stabilized) (UniProt Q6UWP7) | 3.56 |
| UniProt P45984 (effect direction: stabilized) | 3.14 |
| RNASEH2C (effect direction: stabilized) (UniProt Q8TDP1) | 2.76 |

| Target | pEC50 |
| --- | --- |
| VARS2 (effect direction: stabilized) (UniProt Q5ST30) | 3.22 |
| KIF15 (effect direction: stabilized) (UniProt Q9NS87) | 3.11 |
| RPS3 (effect direction: destabilized) (UniProt P23396) | < 2.7 |
| WDR61 (effect direction: stabilized) (UniProt Q9GZS3) | 2.85 |
| UniProt Q9Y2K2 (effect direction: stabilized) | 3.43 |
| NUP85 (effect direction: stabilized) (UniProt Q9BW27) | < 2.7 |
| HSPA4 (effect direction: stabilized) (UniProt P34932) | < 2.7 |
| UniProt P83731 (effect direction: destabilized) | 3.11 |
| UniProt Q14240 (effect direction: stabilized) | 3.54 |
| MOB2 (effect direction: stabilized) (UniProt Q70IA6) | 3.21 |
| UniProt P78356 (effect direction: stabilized) | 2.83 |
| SPAST (effect direction: stabilized) (UniProt Q9UBP0) | 3.34 |
| NCAPG (effect direction: stabilized) (UniProt Q9BPX3) | 3.93 |
| TMEM33 (effect direction: stabilized) (UniProt P57088) | 3.04 |
| UniProt P62280 (effect direction: destabilized) | 4.05 |
| MTR (effect direction: stabilized) (UniProt Q99707) | 3.13 |
| UniProt O43847 (effect direction: stabilized) | < 2.7 |
| UniProt P62316 (effect direction: destabilized) | < 2.7 |
| UniProt Q9NZM5 (effect direction: destabilized) | 2.72 |
| UniProt Q92600 (effect direction: stabilized) | 3.18 |
| TMEM173 (effect direction: stabilized) (UniProt Q86WV6) | 3.26 |
